Two compounds from PubChem BioAssay (NCI) can be followed below.

Test systems include RXF-631 renal; SN12K1 renal; P388 leukemia; P388/ADR leukemia.
Holding throughout (assay): NCI tumour cell line growth inhibition, 48 h

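96-well plates; 48 h exposure; 5 concentrations. Endpoints by linear interpolation between flanking doses. Not reached: highest tested concentration assigned. TGI is the concentration that stops growth completely.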 A value given as a limit tells only on which side of the number the result lay.

For `CN(C)CCNc1ccc2nnn3c4ccc(Cl)cc4c(=O)c1c23`, the TGI with RXF-631 renal is 16.4 µM.
As for `CCCCCCc1ccc(O)cc1O`, the TGI with SN12K1 renal, with P388 leukemia and with P388/ADR leukemia was over 100 µM each time.
